# Measurements from publication PMC7698842, “Lanostane Triterpenoid Metabolites from a Penares sp. Marine Sponge Protect Neuro-2a Cells against Paraquat Neurotoxicity” (Molecules, 2020).
# Columns and labels:
# [1] = Cytotoxicity toward Neuro-2a cells (MTT assay); format: cell-based, mouse; conditions: mouse, Neuro-2a neuroblastoma cells, 24 h
# Procedure: (§1) The cells of mouse neuroblastoma cell line Neuro-2a (ATCC® CCL-131™; American Type Culture Collection, Manassas, VA, USA) were cultured in Dulbecco’s modified Eagle’s medium (DMEM) containing 10% fetal bovine serum (Biolot, St. Petersburg, Russia) and 1% penicillin/streptomycin (Biolot, St. Petersburg, Russia) at 37 °C in a humidified atmosphere with 5% (v/v) CO2. Initially, cells were incubated in cultural flasks until sub-confluent (~80%). For testing, Neuro-2a cells were seeded in 96- or 6-well plates and experiments were started after 24 h.
# (§2) The cells (1 × 10^4 cells/well of a 96-well plate) were incubated with different concentrations of studied compounds during 24 h. After that, cell viability was determined by the MTT (3-(4,5-dimethylthiazol-2-yl)-2,5-diphenyltetrazolium bromide) method according to the manufacturer’s instructions (Sigma-Aldrich, St. Louis, MO, USA). Absorbance of the converted formazan was measured using a Multiskan FC microplate photometer (Thermo Scientific, Waltham, MA, USA) at λ = 570 nm. The results were presented as percent of control data, and concentration of cell viability inhibition on 50% (IC50) was calculated.
# Neuro-2a cells = assay: Cytotoxicity toward Neuro-2a cells (MTT assay); format: cell-based, mouse; conditions: Neuro-2a cells, 100 μM, MTT assay
# Procedure: as §1, §2
# [2] = DPPH radical scavenging assay (cell-free); conditions: 30 min, MeOH
# Procedure: The 2,2-diphenyl-1-picryl-hydrazyl-hydrate (DPPH) radical scavenging activity was tested as described previously. The compounds were dissolved in MeOH, and the solutions (120 µL) were dispensed into wells of a 96-well microplate. The DPPH (Sigma-Aldrich, Steinheim, Germany) was dissolved in MeOH at a concentration of 7.5 × 10^−3 M and the solution (30 µL) was added to each well. The concentrations of tested compounds in the mixtures were 10 and 100 µM. Ascorbic acid was used as a positive control. The mixtures were shaken and left for 30 min. The absorbance of the resulting solutions was measured at λ = 520 nm with a MultiscanFC plate reader (Thermo Scientific, Waltham, MA, USA). The concentration scavenging 50% of the DPPH radical (EC50) was calculated for each compound.
# [3] = test system: PQ-treated Neuro-2a cells; assay: Propidium iodide straining of PQ-treated Neuro-2a cells (membrane permeability); format: cell-based, mouse; conditions: PQ-treated cells, 24 h
# Procedure: The cells (1 × 10^4 cells/well) were seeded in black 96-well plates before testing. After incubation of the cells with compounds and PQ during 24 h, PI solution (10 μg/mL) was added to each well and the plate was incubated in the dark at 37 °C for 10 min. Cells were washed with phosphate buffer saline (PBS) (BioloT, St.Peterburg, Russia) and fluorescence was measured with a Fluoroskan Ascent plate reader (Thermo Labsystems, Helsinki, Finland) at […]. All manipulations with fluorescent probes were carried out in a darkened room. The results were presented as percent of positive control data.
# [4] = test system: ROS level in PQ-treated Neuro-2a cells; assay: ROS level analysis in PQ-treated Neuro-2a cells (H2DCFDA); format: cell-based, mouse; conditions: tested at 1 and 10 μM, PQ 500 µM 1 h
# Procedure: The cells (1 × 10^4 cells/well of a 96-well plate) were incubated with compound solutions (1 and 10 µM) during 1 h. Then, PQ was added to cell suspension to a resulting concentration of 500 µM for incubation during 1 h. Cells incubated without PQ and compounds and with PQ alone were used as positive and negative controls, respectively. The 20 µL of 2,7-dichlorodihydrofluorescein diacetate solution (H2DCFDA, Molecular Probes, Eugene, OR, USA) was added to each well (10 µM, final concentration) and the plate was incubated for an additional 10 min at 37 °C. The intensity of dichlorofluorescin fluorescence was measured with a PHERAstar FS plate reader (BMG Labtech, Ortenberg, Germany) at λex = 485 nm and λem = 518 nm. The data were processed by MARS Data Analysis v. 3.01R2 (BMG Labtech, Ortenberg, Germany). The results were presented as percent of positive control data.
# [5] = test system: mitochondrial membrane potential in PQ-treated Neuro-2a cells; assay: Mitochondrial membrane potential detection (TMRM) in PQ-treated Neuro-2a cells; format: cell-based, mouse; conditions: compound 10 μM, PQ 500 µM 1 h
# Procedure: The cells (1 × 10^4 cells/well of a 96-well plate) were incubated with compound solutions (1 and 10 µM) during 1 h. Then, PQ was added to cell suspension to a resulting concentration of 500 µM for incubation during 1 h. Cells incubated without PQ and compounds and with PQ alone were used as positive and negative controls, respectively. The tetramethylrhodamine methyl (TMRM) (Sigma-Aldrich, St. Louis, MO, USA) solution at 500 nM was added in each well and cells were incubated for 30 min at 37 °C. The intensity of fluorescence was measured with a PHERAstar FS plate reader (BMG Labtech, Ortenberg, Germany) at λex = 540 nm and λem = 590 nm. The data were processed by MARS Data Analysis v. 3.01R2 (BMG Labtech, Ortenberg, Germany). The results were presented as percent of positive control data.
# [6] = test system: Hsp70 level in Neuro-2a cells; assay: Hsp70 level analysis by Western blot in Neuro-2a cells; format: cell-based, mouse; conditions: compound 10 µM 1 h, then PQ 500 µM 24 h
# Procedure: The Hsp70 expression was detected by Western blot analysis. Cell suspensions (1.6 × 10^5 cells/well of a 6-well plate) were seeded and treated with studied compounds at a concentration of 10 µM for 1 h. After that, PQ (500 µM) was added and cells were incubated during 24 h. Cells incubated without PQ and compounds and with PQ alone were used as positive and negative controls, respectively. Cells were washed by cold PBS (BioloT, Russia) twice and lysed by radioimmunoprecipitation assay (RIPA) buffer (BioloT, St. Peterburg, Russia). The amount of proteins was measured by the Bradford method and equal samples (25 µg) were prepared using sample buffer. Proteins were separated with sodium dodecyl sulphate (SDS) electrophoresis in 10% polyacrylamide gel. The electrophoretically separated proteins were transferred onto the polyvinylidene difluoride (PVDF) membrane Whatman (Sigma-Aldrich, St. Louis, MO, USA) using a semi-dry transfer apparatus (Helicon, Moscow, Russia). […] The peroxidase reaction was visualized by an enhanced chemiluminescence (ECL) kit according to the instructions of the manufacturer (Sigma-Aldrich, St. Louis, MO, USA) using the VersaDoc Imaging System (Bio-Rad, Hercules, CA, USA).
# [7] = test system: PQ-treated Neuro-2a cells; assay: Neurite outgrowth estimation in PQ-treated Neuro-2a cells; format: cell-based, mouse
# Procedure: Neurite outgrowth was studied as described by Li et al.. Neuro-2a cells were seeded in 6-well plates (1.6 × 10^5 cells/well) in DMEM medium containing 10% fetal bovine serum (Biolot, St. Peterburg, Russia) and 1% penicillin/streptomycin (Invitrogen, Carlsbad, CA, USA). The next day, this growth media was changed with serum-free DMEM media containing 1% penicillin/streptomycin, and cells were treated with studied compounds at a concentration of 10 µM for 1 h. After that, PQ (500 µM) was added and cells were incubated during 24 h. Cells incubated without PQ and compounds and with PQ alone were used as positive and negative controls, respectively.
# For each well, approximately 10 images were acquired randomly by scanning the wells from left to right and top to bottom using the AxioImager A1 microscope (CarlZeiss, Oberkochen, Germany). A total of ten random fields (near 350 cells in each) for each experimental group were scored for neurite outgrowth. The number of neurite-bearing cells and lengths of the individual neurites for each cell were measured using the AxioVision 4.7.1 software (CarlZeiss, Oberkochen, Germany). Length was defined as the straight-line distance from the tip of the neurite to the junction between the cell body and neurite base. In the case of branched neurites, the length of the longest branch was measured from the tip of the neurite to the cell body. In each experimental group, the average length of neurites was calculated, as well as the average number of neurites per one cell.
# [8] = test system: histamine release induced by anti-IgE; conditions: cited from earlier work
# [9] = cells incubated with compound 10 µM and PQ 500 µM
# [10] = compound 10 µM 1 h, then PQ 500 µM 24 h
structure (smiles),measurement,setting,value
"CC(=O)O[C@H]1CC[C@]2(C)C3=C(CC[C@H]2C1(C)C)[C@]1(C(=O)O)CC[C@H]([C@H](C)CCC=C(C)C)[C@@]1(C)CC3 [Compound 5, acetylpenasterol]","activity at 24 h, 10 µM","[1]; Neuro-2a cell viability, 10 μM, read-out: Cytotoxicity (MTT Assay) % of Control at 10 μM",97.9 ± 3.3%
same,IC50 at 24 h,[1]; Neuro-2a cells,> 100 µM
same,death of cells,Neuro-2a cells,45.6%
same,EC50,[2],> 100 µM
same,decrease of fluorescence of PI-straining cells,[3]; compound 1 μM pre-incubation,20%
same,decrease of fluorescence of PI-straining cells,[3]; compound 10 μM pre-incubation,24%
same,concentrations at which ROS content in PQ-treated cells was reduced,[4],effective at concentrations of 1 and 10 μM
same,increase of intensity of TMRM fluorescence (PQ-induced mitochondrial dysfunction diminished),[5],35%
same,effect on Hsp70 level in PQ-treated cells,[6],raised it to the initial level
same,proportion of neurites with a length of 0–4.99 µm in the total number,[7]; [9],6.4%
same,proportion of neurites with a length of 10.00–14.99 µm in the total number,[7]; [9],20.7%
same,increase in the average number of neurites per cell,[7]; [10],20%
same,increase of neurites-bearing cell amount compared to PQ-treated control,[7]; [10],144%
same,inhibition of histamine release induced by anti-IgE,[8],inhibitors of histamine release
